In patent US4323581A, “Method of treating carcinogenesis” (priority 1978, dated 1982):

What was measured:
[1] = Accumulation in the liver; format: in vivo; details: unlike the natural retinyl esters
[2] = LD50 in Swiss mice; details: mouse, in vivo
Procedure: The drug is administered at regular intervals, conveniently at meal times or once daily.

[3] = test system: breast cancer; assay: Prevention of breast cancer in rats, oral dosing; format: in vivo; details: oral doses of 32 and 64 mg/kg/day
[4] = test system: MNU-induced mammary cancer; assay: Inhibition of mammary carcinogenesis induced by N-methyl-N-nitrosourea (MNU), rat breast cancer; format: in vivo, Female Sprague-Dawley rats
[5] = U.S. Pat. No. 4,108,880; cited from earlier work
[6] = compared with sunscreening amounts of retinoic acid; U.S. Pat. No. 4,108,880; cited from earlier work
[7] = test system: tracheal epithelium; assay: Reversal of keratinized squamous metaplastic lesions of vitamin A deficiency in tracheal organ culture; format: cell-based; details: for % of Cultures with Keratin and Keratohyaline Granules / % of Cultures with Respective Amounts of Squamous Metaplasia: None / % of Cultures with Respective Amounts of Squamous Metaplasia: Marked / % of Cultures with Respective Amounts of Squamous Metaplasia: Mild / % of Cultures with Respective Amounts of Squamous Metaplasia: Minimal / % of Cultures with Respective Amounts of Squamous Metaplasia: Severe: collected day 10; for % of Cultures with Respective Amounts of Squamous Metaplasia: Marked: marked = 10-40% squamous; for % of Cultures with Respective Amounts of Squamous Metaplasia: Mild: mild = 2-10% squamous; for % of Cultures with Respective Amounts of Squamous Metaplasia: Minimal: minimal = less than 2% squamous; for % of Cultures with Respective Amounts of Squamous Metaplasia: Severe: severe = more than 40% squamous
From the text: N-(4-hydroxyphenyl)-all-trans-retinamide was compared with retinoic acid in an in vitro screening model for identifying retinoids having activity in preventing carcinogenesis in epithelial tissue. The experimental method, which is described in Experimental Lung Cancer:Intern'l Symp, 575-82, 1974, involves reversal of keratinization in tracheal organ culture.
In brief summary, in the absence of retinoic acid or a synthetic retinoid having similar activity, the test organ culture of tracheal epithelium undergoes abnormal differentiation. Addition of small concentrations of retinoic acid (as low as 10^-9 M) will cause reversion to normal tracheal epithelium. Test compounds are compared in activity to retinoic acid or another active standard both as regards squamous metaplasia and keratin production, both of which are measures of abnormal development of the epithelial culture.
In carrying out the tests reported in Table I, all tracheas were cultured for the first 3 days in medium without retinoid. At this time, some tracheas were collected, while the rest were cultured for a further week in medium containing either no retinoid, or retinoid added at the concentrations shown. These tracheas were collected on the 10th day of culture. Cultures were graded as to the percentage of their total epithelium showing squamous metaplasia on eight cross sections from the middle of each trachea. If more than 40% of the total epithelial length was squamous, it was graded as having severe squamous metaplasia; between 10-40% was graded as marked; between 2-10% was graded as mild; and less than 2% was graded as minimal.

[8] = Systemic toxicity; details: in vivo
[9] = test system: MNU-induced mammary cancer; assay: Inhibition of mammary carcinogenesis induced by N-methyl-N-nitrosourea (MNU), rat breast cancer; format: in vivo, Female Sprague-Dawley rats; details: Table III
From the text: On the basis of the encouraging results summarized in the foregoing example, N-(4-hydroxyphenyl)-all-trans-retinamide was compared to retinyl acetate in the experimental assay for efficacy against rat breast cancer described in Nature Vol. 267, pp 620-621 (June 16, 1977), which measures the ability to inhibit mammary carcinogenesis induced by N-methyl-N-nitrosourea (MNU). The results of further extension of the tests, comparing the 4-hydroxyphenyl retinamide only to placebo, after 18 weeks with high dose MNU and 21 weeks with low dose MNU, are set forth in Table III. The results using these two different levels of MNU and two dietary levels of retinoid are shown graphically in FIGS. 1 and 2 after 18 weeks of testing.
Animals: Female Sprague-Dawley rats obtained from ARS Sprague-Dawley.
Crystalline MNU. Rats received 2 I.V. injections at 50 and 57
High dose is 50 mg/kg; low dose 15 mg/kg.
Retinoids were dissolved in solvent and blended into the diets.
placed on diets 3 days after last MNU injection.
50 gm trioctanoin:ethanol (3:1), 0.05 ml Tenox 20, 0.05 ml
50 gm retinoid solvent/kg diet.
High dose is 50 mg/kg; low dose 15 mg/kg. Rats on high dose of
sacrificed after 18 weeks.
Placebo: 50 gm retinoid solvent/kg diet.

[10] = test system: epithelial cancer; assay: Effectiveness in preventing epithelial cancer in mammals; format: in vivo; details: at reasonable dose levels
[11] = Toxicity compared to retinyl acetate; details: in vivo
[12] = Target specificity in concentrating at the breast; details: in vivo
[13] = test system: breast cancer; details: in vivo; cited from earlier work
[14] = test system: chemical carcinogenesis; details: in vivo; cited from earlier work
[15] = in vivo; cited from earlier work
[16] = Table II, 73 days, MNU high dose (50 mg/kg), 391 mg/kg diet
[17] = Table II, 73 days, MNU high dose (50 mg/kg), 782 mg/kg diet
[18] = Table II, 73 days, MNU low dose (15 mg/kg), 391 mg/kg diet
[19] = Table II, 73 days, MNU low dose (15 mg/kg), 782 mg/kg diet
[20] = Table II, 73 days, saline, 391 mg/kg diet
[21] = Table II, 73 days, saline, 782 mg/kg diet
[22] = Table III, 18 weeks, MNU high dose (50 mg/kg), 782 mg/kg diet
[23] = Table III, 21 weeks, MNU low dose (15 mg/kg), 782 mg/kg diet
[24] = Table III, saline, 391 mg/kg diet
[25] = Table III, saline, 782 mg/kg diet
[26] = 18 weeks, MNU high dose (50 mg/kg), 391 mg/kg diet
[27] = 21 weeks, MNU low dose (15 mg/kg), 391 mg/kg diet

CC1=C(/C=C/C(C)=C/C=C/C(C)=C/C(=O)Nc2ccc(O)cc2)C(C)(C)CCC1 [4-Hydroxyphenyl Retinamide, N-(4-hydroxyphenyl)-all-trans-retinamide]
accumulation in the liver [1]: does not accumulate in the liver in appreciable amounts
LD50 ([2]; ip): 436 mg/kg
LD50 ([2]; po): > 400 mg/kg
prevention of breast cancer in rats [3]: very effective in preventing breast cancer in rats
efficacy relative to retinyl acetate ([4]; MNU-induced mammary carcinogenesis): substantially as efficacious as retinyl acetate
Mammary Tumor Incidence [4, 16]: 5/16
Mammary Tumor Incidence (%) [4, 16]: 31%
Mammary Tumor Incidence [4, 17]: 0/17
Mammary Tumor Incidence (%) [4, 17]: 0%
Mammary Tumor Incidence [4, 18]: 0/40
Mammary Tumor Incidence (%) [4, 18]: 0%
Mammary Tumor Incidence [4, 19]: 0/39
Mammary Tumor Incidence (%) [4, 19]: 0%
Mammary Tumor Incidence [4, 20]: 0/10
Mammary Tumor Incidence (%) [4, 20]: 0%
Mammary Tumor Incidence [4, 21]: 0/10
Mammary Tumor Incidence (%) [4, 21]: 0%
Total Number of Tumors ([4]; Table III, 18 weeks, MNU high dose (50 mg/kg), 391 mg/kg diet): 48
Mammary Tumor Incidence [4, 22]: 11/17
Total Number of Tumors [4, 22]: 37
Mammary Tumor Incidence ([4]; Table III, 21 weeks, MNU low dose (15 mg/kg), 391 mg/kg diet): 5/40
Mammary Tumor Incidence [4, 23]: 3/39
Mammary Tumor Incidence (%) [4, 23]: 8%
Total Number of Tumors [4, 23]: 4
Mammary Tumor Incidence (%) [4, 24]: 0%
Total Number of Tumors [4, 24]: 0
Mammary Tumor Incidence [4, 25]: 0/10
Mammary Tumor Incidence (%) [4, 25]: 0%
ultraviolet absorption [5]: good ultraviolet absorber
irritating effect on skin [6]: does not have the irritating effect on skin that would be expected from the use of sunscreening amounts of retinoic acid
efficacy relative to retinoic acid ([7]; 10^-8 M): at least as efficacious as retinoic acid
% of Cultures with Keratin and Keratohyaline Granules ([7]; 10^-8 M): 0%
% of Cultures with Respective Amounts of Squamous Metaplasia: None ([7]; 10^-8 M): 20%
% of Cultures with Respective Amounts of Squamous Metaplasia: Marked ([7]; 10^-8 M): 0%
% of Cultures with Respective Amounts of Squamous Metaplasia: Mild ([7]; 10^-8 M): 0%
% of Cultures with Respective Amounts of Squamous Metaplasia: Minimal ([7]; 10^-8 M): 80%
% of Cultures with Respective Amounts of Squamous Metaplasia: Severe ([7]; 10^-8 M): 0%
efficacy relative to retinoic acid ([7]; 10^-9 M): nearly as efficaceous
% of Cultures with Keratin and Keratohyaline Granules ([7]; 10^-9 M): 40%
% of Cultures with Respective Amounts of Squamous Metaplasia: None ([7]; 10^-9 M): 20%
% of Cultures with Respective Amounts of Squamous Metaplasia: Marked ([7]; 10^-9 M): 0%
% of Cultures with Respective Amounts of Squamous Metaplasia: Mild ([7]; 10^-9 M): 30%
% of Cultures with Respective Amounts of Squamous Metaplasia: Minimal ([7]; 10^-9 M): 20%
% of Cultures with Respective Amounts of Squamous Metaplasia: Severe ([7]; 10^-9 M): 30%
efficacy ([7]; 10^-10 M): virtually inefficacious
% of Cultures with Keratin and Keratohyaline Granules ([7]; 10^-10 M): 100%
% of Cultures with Respective Amounts of Squamous Metaplasia: None ([7]; 10^-10 M): 0%
% of Cultures with Respective Amounts of Squamous Metaplasia: Marked ([7]; 10^-10 M): 75%
% of Cultures with Respective Amounts of Squamous Metaplasia: Mild ([7]; 10^-10 M): 12%
% of Cultures with Respective Amounts of Squamous Metaplasia: Minimal ([7]; 10^-10 M): 0%
% of Cultures with Respective Amounts of Squamous Metaplasia: Severe ([7]; 10^-10 M): 12%
systemic toxicity [8]: low systemic toxicity
Mammary Tumor Incidence [9, 26]: 13/16
Mammary Tumor Incidence (%) [9, 26]: 81%
Mammary Tumor Incidence (%) ([9]; 18 weeks, MNU high dose (50 mg/kg), 782 mg/kg diet): 64%
Mammary Tumor Incidence (%) [9, 27]: 12%
Total Number of Tumors [9, 27]: 5
Mammary Tumor Incidence ([9]; saline, 391 mg/kg diet): 0/10
Total Number of Tumors ([9]; saline, 782 mg/kg diet): 0
effectiveness in preventing epithelial cancer in mammals [10]: good effectiveness in preventing epithelial cancer in mammals
toxicity relative to retinyl acetate [11]: less toxic
target specificity in concentrating at the breast [12]: adequate target specificity in concentrating at the breast

CC1=C(/C=C/C(C)=C/C=C/C(C)=C\C(=O)O)C(C)(C)CCC1 [13-cis-retinoic acid]
effectiveness against breast cancer in the rat model [13]: has not been found to be particularly effective against breast cancer in the rat model
potency in preventing chemical carcinogenesis relative to retinoic acid or the natural retinyl esters [14]: more potent in preventing chemical carcinogenesis
toxicity relative to retinoic acid or the natural retinyl esters [15]: considerably less toxic than retinoic acid or the natural retinyl esters
